Experimental data from patent US9493446B2, “Orexin receptor antagonists which are [ortho bi-(hetero-)aryl]-[2-(meta bi-(hetero-)aryl)-pyrrolidin-1-yl]-methanone derivatives” (Actelion Pharmaceuticals Ltd, priority 2012, dated 2016).
Read-outs that look alike come from different tables or passages of the source.

How the values were obtained:
[1] = biological target: orexin-1 (Homo sapiens (Human), UniProt O43613); test: Intracellular calcium measurement (FLIPR), CHO cells expressing human orexin-1 receptor, 3 nM orexin-A; format: cell-based; settings: CHO cells expressing human orexin-1 receptor, FLIPR, 3 nM orexin-A; geometric mean if determined several times; read-out: IC50 OX1
Method in brief: (§1)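 CHO cells stably expressing each receptor were loaded with 3 μM fluo-4 AM plus 5 mM probenecid for 50 min at 37 °C, then equilibrated 30 min at rt.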

[2] = biological target: human orexin-2 receptor (Homo sapiens (Human), UniProt O43614); test: Intracellular calcium measurement (FLIPR), CHO cells expressing human orexin-2 receptor, 3 nM orexin-A; format: cell-based; settings: read-out: IC50 OX2
Method in brief: as §1

[3] = CHO cells expressing human orexin-2 receptor, FLIPR, 3 nM orexin-A, geometric mean if determined several times

human orexin-2 receptor, sequence (O43614 whole entry): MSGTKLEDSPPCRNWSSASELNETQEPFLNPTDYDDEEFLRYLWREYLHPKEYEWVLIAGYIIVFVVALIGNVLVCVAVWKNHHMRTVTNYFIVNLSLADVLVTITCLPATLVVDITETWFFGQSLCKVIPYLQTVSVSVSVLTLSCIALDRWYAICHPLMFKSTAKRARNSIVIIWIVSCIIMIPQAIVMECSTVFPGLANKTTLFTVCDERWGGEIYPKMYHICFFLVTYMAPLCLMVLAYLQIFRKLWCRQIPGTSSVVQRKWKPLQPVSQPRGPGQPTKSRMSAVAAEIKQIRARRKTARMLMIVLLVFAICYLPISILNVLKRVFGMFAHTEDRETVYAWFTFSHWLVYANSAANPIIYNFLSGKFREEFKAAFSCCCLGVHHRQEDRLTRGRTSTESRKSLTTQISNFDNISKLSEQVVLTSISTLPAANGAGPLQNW
orexin-1, sequence (O43613 whole entry): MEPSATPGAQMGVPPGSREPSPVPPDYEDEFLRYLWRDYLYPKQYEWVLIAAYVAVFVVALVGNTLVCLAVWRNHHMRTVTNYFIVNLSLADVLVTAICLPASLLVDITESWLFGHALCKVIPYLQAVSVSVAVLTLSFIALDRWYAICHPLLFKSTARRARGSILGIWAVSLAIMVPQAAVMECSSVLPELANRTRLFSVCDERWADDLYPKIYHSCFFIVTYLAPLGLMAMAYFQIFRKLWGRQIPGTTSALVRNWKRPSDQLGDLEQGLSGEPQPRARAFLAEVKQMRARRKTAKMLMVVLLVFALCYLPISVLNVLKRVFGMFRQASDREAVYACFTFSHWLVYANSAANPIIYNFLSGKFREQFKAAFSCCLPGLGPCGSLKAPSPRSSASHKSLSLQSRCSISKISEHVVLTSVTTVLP

Row | SMILES | IC50 [1] [nM] | IC50 [2, 3] [nM] | IC50 [2] [nM]
1 | Cc1ccc(-n2nccn2)c(C(=O)N2CCC[C@H]2c2nc(-c3cccnc3OC3CCC3)no2)c1 [compound 48, {(S)-2-[3-(2-Cyclobutoxy-pyridin-3-yl)-[1,2,4]oxadiazol-5-yl]-pyrrolidin-1-yl}-(5-methyl-2-[1,2,3]triazol-2-yl-phenyl)-methanone] | 45 | 58 | 
2 | Cc1ccc(-n2nccn2)c(C(=O)N2CCC[C@H]2c2nc(-c3cccnc3OC3CCCC3)no2)c1 [compound 49, {(S)-2-[3-(2-Cyclopentyloxy-pyridin-3-yl)-[1,2,4]oxadiazol-5-yl]-pyrrolidin-1-yl}-(5-methyl-2-[1,2,3]triazol-2-yl-phenyl)-methanone] | 89 | 233 | 
3 | Cc1ccc(-n2nccn2)c(C(=O)N2CCC[C@H]2c2nc(-c3c[nH]c4ncccc34)no2)c1 [compound 50, (5-Methyl-2-[1,2,3]triazol-2-yl-phenyl)-{(S)-2-[3-(1H-pyrrolo[2,3-b]pyridin-3-yl)-[1,2,4]oxadiazol-5-yl]-pyrrolidin-1-yl}-methanone] | 131 | 75 | 
4 | Cc1ccc(-n2nccn2)c(C(=O)N2CCC[C@H]2c2nc(-c3cn(C)c4ncccc34)no2)c1 [compound 51, {(S)-2-[3-(1-Methyl-1H-pyrrolo[2,3-b]pyridin-3-yl)-[1,2,4]oxadiazol-5-yl]-pyrrolidin-1-yl}-(5-methyl-2-[1,2,3]triazol-2-yl-phenyl)-methanone] | 15 | 11 | 
5 | Cc1ccc(-n2nccn2)c(C(=O)N2CCC[C@H]2c2nc(-c3cccc4c3OCO4)no2)c1 [compound 52, [(S)-2-(3-Benzo[1,3]dioxol-4-yl-[1,2,4]oxadiazol-5-yl)-pyrrolidin-1-yl]-(5-methyl-2-[1,2,3]triazol-2-yl-phenyl)-methanone] | 182 | 25 | 
6 | CCc1ncccc1-c1noc([C@@H]2CCCN2C(=O)c2cc(C)ccc2-n2nccn2)n1 [compound 53, {(S)-2-[3-(2-Ethyl-pyridin-3-yl)-[1,2,4]oxadiazol-5-yl]-pyrrolidin-1-yl}-(5-methyl-2-[1,2,3]triazol-2-yl-phenyl)-methanone] | 315 | 97 | 
7 | Cc1ccc(-n2nccn2)c(C(=O)N2CCC[C@H]2c2nc(-c3cccc(C(F)(F)F)c3C)no2)c1 [compound 54, (5-Methyl-2-[1,2,3]triazol-2-yl-phenyl)-{(S)-2-[3-(2-methyl-3-trifluoromethyl-phenyl)-[1,2,4]oxadiazol-5-yl]-pyrrolidin-1-yl}-methanone] | 216 | 46 | 
8 | CCOc1cnccc1-c1noc([C@@H]2CCCN2C(=O)c2cc(C)ccc2-n2nccn2)n1 [compound 55, {(S)-2-[3-(3-Ethoxy-pyridin-4-yl)-[1,2,4]oxadiazol-5-yl]-pyrrolidin-1-yl}-(5-methyl-2-[1,2,3]triazol-2-yl-phenyl)-methanone] | 241 | 41 | 
9 | CCOc1c(F)cccc1-c1noc([C@@H]2CCCN2C(=O)c2cc(C)ccc2-n2nccn2)n1 [compound 56, {(S)-2-[3-(2-Ethoxy-3-fluoro-phenyl)-[1,2,4]oxadiazol-5-yl]-pyrrolidin-1-yl}-(5-methyl-2-[1,2,3]triazol-2-yl-phenyl)-methanone] | 16 | 7 | 
10 | Cc1ccc(-n2nccn2)c(C(=O)N2CCC[C@H]2c2nc(-c3cn(C)c4ccccc34)no2)c1 [compound 57, {(S)-2-[3-(1-Methyl-1H-indol-3-yl)-[1,2,4]oxadiazol-5-yl]-pyrrolidin-1-yl}-(5-methyl-2-[1,2,3]triazol-2-yl-phenyl)-methanone] | 7 | 4 | 
11 | Cc1ccc(-n2nccn2)c(C(=O)N2CCC[C@H]2c2nc(-c3cnccc3C)no2)c1 [compound 58, {(S)-2-[3-(4-Methyl-pyridin-3-yl)-[1,2,4]oxadiazol-5-yl]-pyrrolidin-1-yl}-(5-methyl-2-[1,2,3]triazol-2-yl-phenyl)-methanone] | > 5040 | 536 | 
12 | COc1cccc(-c2noc([C@@H]3CCCN3C(=O)c3cc(C)ccc3-n3nccn3)n2)c1OC [compound 59, {(S)-2-[3-(2,3-Dimethoxy-phenyl)-[1,2,4]oxadiazol-5-yl]-pyrrolidin-1-yl}-(5-methyl-2-[1,2,3]triazol-2-yl-phenyl)-methanone] | 1220 | 47 | 
13 | Cc1ccc(-n2nccn2)c(C(=O)N2CCC[C@H]2c2nc(-c3cnn(C)c3)no2)c1 [compound 60, {(S)-2-[3-(1-Methyl-1H-pyrazol-4-yl)-[1,2,4]oxadiazol-5-yl]-pyrrolidin-1-yl}-(5-methyl-2-[1,2,3]triazol-2-yl-phenyl)-methanone] | > 1420 | 419 | 
14 | CCc1cnc(-c2noc([C@@H]3CCCN3C(=O)c3cc(C)ccc3-n3nccn3)n2)cc1C [compound 61, {(S)-2-[3-(5-Ethyl-4-methyl-pyridin-2-yl)-[1,2,4]oxadiazol-5-yl]-pyrrolidin-1-yl}-(5-methyl-2-[1,2,3]triazol-2-yl-phenyl)-methanone] | 1480 | 271 | 
15 | Cc1ccc(-n2nccn2)c(C(=O)N2CCC[C@H]2c2nc(-c3cc(C)c(C)cn3)no2)c1 [compound 62, {(S)-2-[3-(4,5-Dimethyl-pyridin-2-yl)-[1,2,4]oxadiazol-5-yl]-pyrrolidin-1-yl}-(5-methyl-2-[1,2,3]triazol-2-yl-phenyl)-methanone] | > 1630 | 242 | 
16 | Cc1ccc(-n2nccn2)c(C(=O)N2CCC[C@H]2c2nc(-c3ccc(C)c(C)n3)no2)c1 [compound 63, {(S)-2-[3-(5,6-Dimethyl-pyridin-2-yl)-[1,2,4]oxadiazol-5-yl]-pyrrolidin-1-yl}-(5-methyl-2-[1,2,3]triazol-2-yl-phenyl)-methanone] | 1420 | 361 | 
17 | COc1cc(O)ccc1-c1noc([C@@H]2CCCN2C(=O)c2cc(C)ccc2-n2nccn2)n1 [compound 64, {(S)-2-[3-(4-Hydroxy-2-methoxy-phenyl)-[1,2,4]oxadiazol-5-yl]-pyrrolidin-1-yl}-(5-methyl-2-[1,2,3]triazol-2-yl-phenyl)-methanone] | 198 | 52 | 
18 | Cc1ccc(-n2nccn2)c(C(=O)N2CCC[C@H]2c2nc(-c3cc(C)nc(C)c3)no2)c1 [compound 65, {(S)-2-[3-(2,6-Dimethyl-pyridin-4-yl)-[1,2,4]oxadiazol-5-yl]-pyrrolidin-1-yl}-(5-methyl-2-[1,2,3]triazol-2-yl-phenyl)-methanone] | 758 | 375 | 
19 | COc1cc(-c2noc([C@@H]3CCCN3C(=O)c3cc(C)ccc3-n3nccn3)n2)cc(C)n1 [compound 66, {(S)-2-[3-(2-Methoxy-6-methyl-pyridin-4-yl)-[1,2,4]oxadiazol-5-yl]-pyrrolidin-1-yl}-(5-methyl-2-[1,2,3]triazol-2-yl-phenyl)-methanone] | 302 | 155 | 
20 | Cc1cc(CC(C)C)nc(-c2noc([C@@H]3CCCN3C(=O)c3cc(C)ccc3-n3nccn3)n2)c1 [compound 67, {(S)-2-[3-(6-Isobutyl-4-methyl-pyridin-2-yl)-[1,2,4]oxadiazol-5-yl]-pyrrolidin-1-yl}-(5-methyl-2-[1,2,3]triazol-2-yl-phenyl)-methanone] | 1250 | 333 | 
21 | Cc1ccc(-n2nccn2)c(C(=O)N2CCC[C@H]2c2nc(-c3ccnc(C)c3)no2)c1 [compound 68, {(S)-2-[3-(2-Methyl-pyridin-4-yl)-[1,2,4]oxadiazol-5-yl]-pyrrolidin-1-yl}-(5-methyl-2-[1,2,3]triazol-2-yl-phenyl)-methanone] | 6670 | 915 | 
22 | COc1ccc(F)c(-c2noc([C@@H]3CCCN3C(=O)c3cc(C)ccc3-n3nccn3)n2)c1F [compound 69, {(S)-2-[3-(2,6-Difluoro-3-methoxy-phenyl)-[1,2,4]oxadiazol-5-yl]-pyrrolidin-1-yl}-(5-methyl-2-[1,2,3]triazol-2-yl-phenyl)-methanone] | 1840 | 163 | 
23 | COc1cccc(-c2noc([C@@H]3CCCN3C(=O)c3cc(C)ccc3-n3nccn3)n2)c1Cl [compound 70] | 623 |  | 53
24 | Cc1ccc(-n2nccn2)c(C(=O)N2CCC[C@H]2c2nc(-c3cccnc3OC(C)C)no2)c1 [compound 71, {(S)-2-[3-(2-Isopropoxy-pyridin-3-yl)-[1,2,4]oxadiazol-5-yl]-pyrrolidin-1-yl}-(5-methyl-2-[1,2,3]triazol-2-yl-phenyl)-methanone] | 8 | 22 | 
25 | COc1cccc(F)c1-c1noc([C@@H]2CCCN2C(=O)c2cc(C)ccc2-n2nccn2)n1 [compound 72, {(S)-2-[3-(2-Fluoro-6-methoxy-phenyl)-[1,2,4]oxadiazol-5-yl]-pyrrolidin-1-yl}-(5-methyl-2-[1,2,3]triazol-2-yl-phenyl)-methanone] | 901 | 57 | 
26 | Cc1ccc(-n2nccn2)c(C(=O)N2CCC[C@H]2c2nc(-c3ccnc(Cl)c3)no2)c1 [compound 73] | 3480 | 1160 | 
27 | Cc1ccc(-n2nccn2)c(C(=O)N2CCC[C@H]2c2nc(-c3cccc4c3ccn4C)no2)c1 [compound 74, {(S)-2-[3-(1-Methyl-1H-indol-4-yl)-[1,2,4]oxadiazol-5-yl]-pyrrolidin-1-yl}-(5-methyl-2-[1,2,3]triazol-2-yl-phenyl)-methanone] | 254 | 6 | 
28 | Cc1ccc(-n2nccn2)c(C(=O)N2CCC[C@H]2c2nc(-c3ccnc4[nH]ccc34)no2)c1 [compound 75, (5-Methyl-2-[1,2,3]triazol-2-yl-phenyl)-{(S)-2-[3-(1H-pyrrolo[2,3-b]pyridin-4-yl)-[1,2,4]oxadiazol-5-yl]-pyrrolidin-1-yl}-methanone] | 1570 | 261 | 
